“And” between values parts separate entries of the source, which are not always exact repeats. Equal values may be shown once. Marks after values point to notes of the source that are not given here.
What was measured:
PARP [1] = assay: PARP inhibition in tumor biopsies of patients; assay type: in vivo, human
Procedure: (§1) Whole blood was collected into EDTA vacutainers and human PBLs were obtained by lymphopreparation according to the manufacturers instructions. Tumour biopsies were collected from the operating theatre in a sterile container and placed immediately on ice. Within 30 minutes tumour samples were snap frozen in liquid nitrogen and stored at −80° C. until homogenised for analysis. The specimen was defrosted on ice and the wet weight documented. For weights over 100 mg the tissue was homogenised using a Pro 2000 instrument (Pro Scientific Inc, Monroe, Conn., USA) in 3 volumes (i.e. 1 mg plus 3 μl isotonic buffer −7 mM Hepes, 26 mM KCl, 0.1 mM dextran, 0.4 mM EGTA, 0.5 mM MgCl2, 45 mM sucrose, pH 7.8), giving a homogenate with an overall dilution of 1 in 4. Where smaller samples had been obtained they were homogenised in 99 or 999 volumes, giving final dilutions of 1 in 100 and 1 in 1000, respectively. The homogenate was kept on ice throughout the process, and homogenisation was performed in 10 second bursts to prevent undue warming of the sample. Unless assayed on the day of homogenisation, samples were re-frozen to −80° C. and stored at this temperature until analysed. Prior to assay the samples were further diluted with isotonic buffer where necessary to give a final dilution of 1 in 1000.
Tumour homogenates were assayed in a similar manner; however, the homogenisation process introduces sufficient DNA damage to maximally stimulate PARP activity and oligonucleotide was not therefore required. The protein concentration of the homogenate was measured using the BCA protein assay and Titertek Multiscan MCC/340 plate reader. Results can be expressed in terms of pmol PAR former per mg protein or per mg tumour.
A pharmacodynamic assay for PARP activity and inhibition uses monoclonal antibodies to measure the amount of PAR polymer that is formed under set conditions in permeabilized peripheral blood lymphocytes and homogenized tumor samples. The quantity of polymer formed can be used as a correlate for PARP activity, whereby decreasing polymer formation correlates with degree of PARP inhibition. PARP activity is expressed as a percentage of baseline, and is calculated by dividing the amount of PAR polymer formed after infusion by the quantity formed before infusion. The feasibility of this assay was successfully tested in the 12 patients Phase 2 study of single-agent temozolomide in patients with metastatic melanoma.
Using a pharmacodynamic assay for PARP activity disclosed in Section C above, PARP inhibition in peripheral blood lymphocytes and tumor tissue was assessed in a Phase 1 clinical trial. As indicated above, enrollment in the Phase 1 Part 2 study has been restricted to patients having metastatic melanoma with biopsiable disease. All patients have been required to consent to pre-treatment and post-treatment biopsies such that PARP activity in the tumor can be evaluated.

PARP [2] = assay: PARP activity in peripheral blood lymphocytes of patients (monoclonal antibody assay); assay type: in vivo, human
Procedure: as §1
Cultured cells or rapidly defrosted lymphocyte preparations were washed twice in ice cold PBS. The cell pellets were resuspended in 0.15 mg/ml digitonin to a density of approximately 1-2×10^6 cells per ml for 5 minutes to permeabilise the cells, following which 9 volumes of ice-cold buffer (7 mM HEPES, 26 mM KCl, 0.1 mM dextran, 0.4 mM EGTA, 0.5 mM MgCl2, 45 mM sucrose, pH 7.8) were added and the sample placed on ice. The permeabilised (i.e. trypan blue stained) cell density was counted and the cell suspension was diluted if necessary with the above buffer to achieve a cell density that allowed 20,000 permeabilised cells to be added to each reaction tube. In the assay maximally stimulated PARP activity is measured by exposure to a blunt ended oligonucleotide in the presence of NAD^+ substrate, at 26° C. in an oscillating water bath. Five μl of 7 mM NAD^+ and 5 μl 200 μg/ml pallindromic oligonucleotide ([…]) were mixed with permeabilised cells and reaction buffer (100 mM Tris HCl, 120 mM MgCl2, pH 7.8) to a final volume of 100 μl. The reaction was stopped after 6 minutes by the addition of excess PARP inhibitor (400 μl of 12.5 μM Compound I) and the cells blotted onto a nitrocellulose membrane (Hybond N, Amersham) using a 24-well manifold. A purified PAR standard curve was loaded onto each membrane (0-25 pmol monomer equivalent) to allow quantification. Overnight incubation with the primary antibody (1 in 500 in PBS-MT (PBS plus 0.05% Tween 20 Plus 5% Milk powder) at 4° C. was followed by 2 washes in PBS-T (PBS plus 0.05% Tween 20) and then incubation in secondary antibody (1 in 1000 in PBS-MT) for 1 hour at room temperature. The incubated membrane was washed frequently with PBS over the course of one hour then exposed for one minute to ECL reaction solution as supplied by the manufacturer. Chemiluminesence detected during a 5 minute exposure was measured using a Fuji LAS3000 UV Illuminator (Raytek, Sheffield, UK) and digitised using the imaging software (Fuji LAS Image version 1.1, Raytek). The acquired image was analysed using Aida Image Analyser (version 3.28.001), and results expressed in LAU/mm^2. Three background areas on the exposed blot were measured and the mean of the background signal from the membrane subtracted from all results. The PAR polymer standard curve was analysed using an un-weighted one site binding non-linear regression model and unknowns read off the standard curve so generated. Results were then expressed relative to the number of cells loaded. Triplicate QC samples of 5000 L1210 cells were run with each assay, all samples from one patient being analysed on the same blot. […]

in vivo = settings: CD-1, mouse, iv, 5 mg/kg
Description: Each of the dose treatment groups was split into 2 cohort groups of 4 mice. The reason for cohort blood sampling is due to the blood volume limitations of the mouse species. Blood was drawn from each cohort every other pharmacokinetic sampling time. […] Three mice per dose group were euthanized at each of the collection time points. […] Blood from each rat was collected for each time point.

LoVo cells = assay: Inhibition of cell growth and potentiation of temozolomide/topotecan, LoVo; assay type: cell-based

CNCc1ccc(-c2[nH]c3cc(F)cc4c3c2CCNC4=O)cc1.O=P(O)(O)O [Compound I, phosphate salt of 8-fluoro-2-{4-[(methylamino)methyl]phenyl}-1,3,4,5-tetrahydro-6H-azepino[5,4,3-cd]indol-6-one]
% PARP Inhibition (PARP [1]; tumor biopsy 4-6 h, temozolomide 135 mg/m^2, Compound I 12 mg/m^2, day 1, individual patients): 91% | % PARP Inhibition (PARP [1]; tumor biopsy 4-6 h, temozolomide 135 mg/m^2, Compound I 12 mg/m^2, day 4, individual patients): 85% and 50% | % PARP Inhibition (PARP [1]; tumor biopsy 4-6 h, temozolomide 170 mg/m^2, Compound I 12 mg/m^2, day 1, individual patients): 77% and 98% | % PARP Inhibition (PARP [1]; tumor biopsy 4-6 h, temozolomide 170 mg/m^2, Compound I 12 mg/m^2, day 5, individual patients): 93% | % PARP Inhibition (PARP [1]; tumor biopsy 4-6 h, temozolomide 200 mg/m^2, Compound I 12 mg/m^2, day 1, individual patients): 90% and 88% | % PARP Inhibition (PARP [1]; tumor biopsy 4-6 h, temozolomide 200 mg/m^2, Compound I 18 mg/m^2, day 1, individual patients): 98% and 94% and 89% and 97% | % PARP Inhibition (PARP [1]; tumor biopsy 4-6 h post-treatment, temozolomide 100 mg/m^2, Compound I 4 mg/m^2, day 1, individual patients): 79% | % PARP Inhibition (PARP [1]; tumor biopsy at 24 hours post-treatment on day 1, temozolomide 200 mg/m^2, Compound I 18 mg/m^2): 86%* | decrease in median PARP activity (PARP [2]; PBL, all patients regardless of dose, after completion of the 30-minute infusion on Day 1): ≥ 50% | % Pretreatment PARP Activity, Median (%) (PARP [2]; PBL, cohort 1, Compound I 1 mg/m^2, 4-6 h, after test dose (usually Day −7)): 57% | % Pretreatment PARP Activity, Median (%) (PARP [2]; PBL, cohort 1, Compound I 1 mg/m^2, 0.5 h, after test dose (usually Day −7)): 18% | % Pretreatment PARP Activity, Median (%) (PARP [2]; PBL, cohort 1, Compound I 1 mg/m^2, 24 h, after test dose (usually Day −7)): 77% | % Pretreatment PARP Activity, Median (%) (PARP [2]; PBL, cohort 2, Compound I 2 mg/m^2, 4-6 h, Day 1): 27% | % Pretreatment PARP Activity, Median (%) (PARP [2]; PBL, cohort 2, Compound I 2 mg/m^2, 0.5 h, Day 1): 10% | % Pretreatment PARP Activity, Median (%) (PARP [2]; PBL, cohort 2, Compound I 2 mg/m^2, 24 h, Day 1): 36% | % Pretreatment PARP Activity, Median (%) (PARP [2]; PBL, cohort 3, Compound I 4 mg/m^2, 4-6 h, Day 1): 28% | % Pretreatment PARP Activity, Median (%) (PARP [2]; PBL, cohort 3, Compound I 4 mg/m^2, 0.5 h, Day 1): 42% | % Pretreatment PARP Activity, Median (%) (PARP [2]; PBL, cohort 3, Compound I 4 mg/m^2, 24 h, Day 1): 108% | % Pretreatment PARP Activity, Median (%) (PARP [2]; PBL, cohort 4, Compound I 8 mg/m^2, 4-6 h, Day 1): 16% | % Pretreatment PARP Activity, Median (%) (PARP [2]; PBL, cohort 4, Compound I 8 mg/m^2, 0.5 h, Day 1): 1% | % Pretreatment PARP Activity, Median (%) (PARP [2]; PBL, cohort 4, Compound I 8 mg/m^2, 24 h, Day 1): 9% | % Pretreatment PARP Activity, Median (%) (PARP [2]; PBL, cohort 9, Compound I 18 mg/m^2, 4-6 h, Day 1): 7.5% | % Pretreatment PARP Activity, Median (%) (PARP [2]; PBL, cohort 9, Compound I 18 mg/m^2, 0.5 h, Day 1): 6% | % Pretreatment PARP Activity, Median (%) (PARP [2]; PBL, cohort 9, Compound I 18 mg/m^2, 24 h, Day 1): 14% | median reduction in PARP activity (PARP [2]; PBL, cohorts 4 and 5, 24 hours after Day 1 dose): > 50% | % Pretreatment PARP Activity, Median (%) (PARP [2]; PBL, cohorts 5-8, Compound I 12 mg/m^2, 4-6 h, Day 1): 13% | % Pretreatment PARP Activity, Median (%) (PARP [2]; PBL, cohorts 5-8, Compound I 12 mg/m^2, 0.5 h, Day 1): 14.5% | % Pretreatment PARP Activity, Median (%) (PARP [2]; PBL, cohorts 5-8, Compound I 12 mg/m^2, 24 h, Day 1): 29% | PARP inhibitory dose (PID) (PARP [2]; patients, PARP activity in peripheral blood lymphocytes <50% of baseline 24 hours after Day 1 dose, with plateau): 12 mg/m^2

CNCc1ccc(-c2[nH]c3cc(F)cc4c3c2CCNC4=O)cc1 [compound of formula 1, 8-fluoro-2-{4-[(methylamino)methyl]phenyl}-1,3,4,5-tetrahydro-6H-azepino[5,4,3-cd]indol-6-one]
AUC(0-inf) (in vivo): 620 ng·h/mL | Vd (in vivo): 10 L/kg | clearance (in vivo): 136 mL/min/kg | half-life (in vivo): 2.3 h | Temozolomide PF50 (LoVo cells; +0.4 μM compound of formula 1): 8 and 8.1 | Topotecan PF50 (LoVo cells; +0.4 μM compound of formula 1): 1.6 and 1.7 | GI50 (LoVo cells; Homo sapiens, 120 h, 5-day continuous exposure): 12 µM

— patent US20060074073A1, “Therapeutic combinations comprising poly (ADP-ribose) polymerases inhibitor” (AGOURON PHARMACEUTICALS, INC., priority 2004, published 2006)
